Measured values published in patent US20020025298A1, “Use of texaphyrin in ocular diagnosis and therapy” (Pharmacyclics, Inc., priority 1996, published 2002).
Several values for one entry are separate records, joined by “and”; a condition that tells them apart may be missing. Equal values may be shown once. Read-outs that look alike come from different tables or passages of the source. Each block holds one molecule with its values, some of them ahead of it.

Tests used:
[1] = cited from earlier work
[2] = cited from earlier work; remark: listed apart in the source
[3] = test system: rabbit plasma proteins and lipoproteins; test: In vivo binding to plasma proteins and lipoproteins, KBr density-gradient ultracentrifugation; conditions: for binding to plasma elements (in words): rabbit, in vivo
Experimental: (§1) Plasma Analysis. Rabbits were injected via the ear vein with 1 μmol Lu(III)T2BET/kg and blood was collected at 15 min, 30 min, 3 hr, and 5 hr post administration. EDTA was used as the anticoagulant. Plasma samples (25 μl) were mixed with 10 mM Triton X100 (3 ml) and analyzed by fluorescence. Fluorescence spectra were acquired with a SLM 48000S instrument, excitation was between 450-480 nm and emission monitored from 700-800 nm. In vivo binding of Lu(III)T2BET to rabbit plasma proteins and lipoproteins was assessed using KBr density-gradient ultracentrifugation to fractionate the protein/lipoprotein mixture, followed by fluorescence spectroscopy to determine the relative distribution of Lu(III)T2BET among the low-density lipoproteins (LDL), high-density lipoproteins (HDL), and heavy proteins.

[4] = test system: normal NZW rabbits; test: Fluorescence angiography in normal NZW rabbits with fundoscopy and H&E histology (safety); assay type: in vivo, rabbit; conditions: i.v. 1-10 μmol/kg, fluorescein and ICG angiography and H&E histology
Experimental: Fluorescence angiography comparing LuT2BET, fluorescein, and ICG was performed on normal NZW rabbits. Normal rabbits (n=4) received an intravenous injection of LuT2BET from 1-10 μmol/kg after intramuscular sedation and pupillary dilatation. Extensive fundoscopy was performed immediately and up to 2 hours post texaphyrin, fluorescein, or ICG administration. […] In further studies, vascular lesions including neovascularization was induced in albino rabbits (NZW) using photocoagulation. PDT using LuT2BET was carried out on the induced lesions. […] Therefore, selective accumulation of Lu(III)T2BET in areas of neovascularization should facilitate diagnosis and photodynamic therapy of age-related macular degeneration and other disorders related to abnormal vasculature.
Dyes. Lutetium texaphyrin, Lu(III)T2BET, was dissolved in 5% mannitol at a concentration of 2 mM. Indocyanine-green (ICG, Cardio-Gree^n®, Becton Dickinson and Company, Cockeysville, Md.) and fluorescein (Alcon Laboratories, Fort Worth, Tex.) fluorescent angiograms were performed at concentrations of 0.31 mg/kg and 7.5 mg/kg, respectively. […]
Photography. Fundus photography and fluorescence angiograms were performed with the TOPCON™50VT camera coupled to the Ophthalmic Imaging System (Ophthalmic Imaging System Inc., Sacramento, Calif.). […] ICG was excited at 790-805 nm and fluorescence detected at 835 nm. […]

[5] = test system: induced vascular lesions of the eye; test: Photodynamic therapy of induced vascular lesions of the eye; assay type: in vivo; conditions: rabbit
Experimental: Induction of Neovascularization. Photocoagulation bums were introduced in the right macular retina of seven rabbits with an argon dye laser (Coherent Inc., Palo Alto, Calif.). On average, five lesions were induced with 577 nm light using a spot size of 50 μm using enough power (typically 450 mW) to cause bleeding into the retina. The eyes were photographed immediately after photocoagulation. Fluorescein and ICG angiograms were performed 11-15 days after photocoagulation. […] Four control animals, having no induced lesions, were given fluorescence angiograms with the respective dyes.
PDT Protocol. Animals received Lu(III)T2BET, 30 minutes post injection laser light at 488 nm, spot size of 1000 μm, was directed to each lesion via a slitlamp system. Fluorescein angiography was performed throughout the procedure, from prior to until after PDT.
Thirty minutes after injection with LuT2BET, laser light at 488 nm, spot size of 1000 μm, was directed to the lesion via a slitlamp lens system.

[6] = Plasma analysis: plasma concentration by fluorescence; assay type: in vivo; conditions: rabbit, i.v. 1 μmol/kg
Experimental: as §1

[7] = Absorption spectrum and fluorescence profile; assay type: physicochemical

Molecule: porfimer sodium
duration of cutaneous photosensitivity ([1]; light of 630 nm): up to 6 weeks

Molecule: CCOC(=O)C1=Cc2c3nc(cc4nc(cc5[n-]c(cc6[n-]c2c(C)c6CC)c(C)c5CC)C(C)=C4CC)[C@@H](C)[C@]13CC.[Cl-].[Cl-].[Sn] (racemic) [SnET2, Tin etiopurpurin]
solubility in aqueous solutions [2]: insoluble

Molecule: Benzoporphyrin derivative [BPD]
duration of cutaneous photosensitivity ([1]; in vivo): a few days | solubility in aqueous solutions [2]: insoluble

binding to plasma elements (in words) [3]: not bound to plasma elements
Molecule: O=C1OC2(c3ccc(O)cc3Oc3cc(O)ccc32)c2ccccc21 [fluorescein, reference compound]

concentration in plasma ([6]; 15 min): 2680 ng/mL | concentration in plasma ([6]; 30 min): 1790 ng/mL | concentration in plasma ([6]; 3 hr): 180 ng/mL | concentration in plasma ([6]; 5 h): 120 ng/mL | relative in vivo binding, HDL fraction ([3]; rabbit plasma): 49% | relative in vivo binding, LDL portion ([3]; rabbit plasma): 10.5% | relative in vivo binding, heavy proteins ([3]; rabbit plasma): 40.5% | absorption bands [7]: 470 nm and 732 nm | fluorescence emission profile centre [7]: 750 nm | extinction coefficient ε ([7]; at 732 nm): 32,000 M^−1 cm^−1 | fluorescence emission FWHM ([7]; emission centered at 750 nm): 60 nm
Molecule: CC(=O)[O-].CC(=O)[O-].CCc1c(CC)c2cc3nc(cnc4cc(OCCOCCOCCOC)c(OCCOCCOCCOC)cc4ncc4nc(cc1[n-]2)C(CCCO)=C4C)C(C)=C3CCCO.O.[Lu+3] [LuT2BET]
normal tissue damage after fluorescence angiography [4]: no evidence of normal tissue damage | damage in control normal choroid or retinal tissue after PDT [5]: no damage was observed | damage to surrounding vessels or tissues after PDT [5]: No damage | closure of induced lesions after PDT ([5]; 488 nm light 30 min after injection, spot size 1000 μm): Closure of induced lesions was observed | fluorescein leakage outside the treated vessel after PDT ([5]; fluorescein angiogram after PDT): limited fluorescence leakage outside of the PDT-treated vessel | binding to plasma elements (in words) [3]: predominantly bound to lipoproteins and to some extent albumin

binding to plasma elements (in words) [3]: binding mainly to albumin
Molecule: CC1(C)C(/C=C/C=C/C=C/C=C2\N(CCCCS(=O)(=O)O)c3ccc4ccccc4c3C2(C)C)=[N+](CCCCS(=O)(=O)[O-])c2ccc3ccccc3c21 [ICG, indocyanine green, reference compound]
